From publication PMC11562385 (RSC Chemical Biology, 2024)
Blank lines part the entries; values can stand above or below the compound they belong to. Peptide text beside a SMILES is read from it.

How the values were obtained:
[1] = molecular target: T1, PD1:PDL1 interaction (Homo sapiens, UniProt Q15116); experiment: PD1/PDL1 immunoblocking ELISA (BPS Bioscience kit cat # 72005); assay type: binding; details: LE = -RTln(EC50)/HA, HA = non-hydrogen atoms omitting the strap (RWV•••VWE)
T1 construct: purchased BPS Bioscience 72005
T1 sequence (Q15116 25-167 limits assumed): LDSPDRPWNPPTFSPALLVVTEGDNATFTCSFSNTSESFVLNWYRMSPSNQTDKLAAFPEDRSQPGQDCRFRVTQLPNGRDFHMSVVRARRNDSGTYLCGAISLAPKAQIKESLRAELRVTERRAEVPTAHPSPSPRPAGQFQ

[2] = Variable-temperature CD melting curves (CD-melts at 228±2 nm and 202±2 nm), individual and global two-state fits; assay type: physicochemical; details: for ΔGF0: CD-melt at 228±2 nm, individual two-state Gibbs-Helmholtz fit (Origin 9.0), phosphate buffer 15 mM pH 6.5 ± MeOH; for ΔGF0 / DHm (fitted value, results from OriginPro) / Tm (fitted value, results from OriginPro): 0-95 °C; for Tm / Hairpin %-fold 291K / Hairpin %-fold 310K: Table S5, individual fit; for Tm: 228±2 nm; for -TΔSF0 / ΔCpF0 / ΔHF0 / ΔHm: as E16; for VT-CD %-fold: folded fraction (χF) at 25 °C from CD-melts, (R) regular / (B) bulged fold; for VT-CD %-fold / VT-CD Tm (°C): phosphate buffer 15 mM pH 6.5, up to 20% MeOH; for Tm 228 nm Indiv.: exciton band 228 nm; for VT-CD Tm (°C): melting temperature from CD-melts; for DHm (fitted value, results from OriginPro) / Tm (fitted value, results from OriginPro): two-state fit of the CD melt θ - θcoil(95) vs T, peptide c 3.2e-5 to 5e-5 M
Outline: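 Far-UV CD melts (0 to 95 °C) at 15-120 µM peptide in 15 mM phosphate buffer, concentration set by Trp/Tyr absorbance at 280 nm; CD-exciton intensity taken as %-folding probe. Melting curves fitted individually and globally to a two-state model.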

SMILES: CSCC[C@H](NC(=O)CNC(=O)[C@H](CCC(=O)O)NC(=O)[C@H](CCCNC(=N)N)NC(=O)[C@H](C)NC(=O)[C@@H](NC(=O)[C@H](Cc1c[nH]c2ccccc12)NC(=O)[C@@H](N)CCCNC(=N)N)C(C)C)C(=O)N[C@@H](CC(N)=O)C(=O)N[C@H](C(=O)N[C@@H](CC(=O)O)C(=O)N[C@@H](Cc1c[nH]c2ccccc12)C(=O)N[C@@H](Cc1ccc(O)cc1)C(=O)N[C@@H](Cc1ccccc1)C(=O)N[C@@H](CC(=O)O)C(=O)N[C@@H](Cc1ccc(O)cc1)C(=O)N[C@@H](Cc1c[nH]c2ccccc12)C(=O)N[C@@H](Cc1c[nH]cn1)C(=O)N[C@@H](Cc1c[nH]c2ccccc12)C(=O)N[C@@H](CCC(=O)O)C(=O)O)[C@@H](C)O [2n] (H-RWVAREGMNTDWYFDYWHWE-OH)
LE (ligand efficiency) [1]: 0.07 | ΔGF0 [2]: 0.46 ± 0.01 kcal/mol | Tm [2]: -5.1 oC | Hairpin %-fold 291K ([2]; 291 K): 36 ± 2% | Hairpin %-fold 310K [2]: 23 ± 2% | -TΔSF0 [2]: 6.11 ± 0.19 kcal/mol | ΔCpF0 [2]: -97 ± 14 cal.deg-1.mol-1 | ΔHF0 [2]: -5.65 ± 0.18 kcal/mol | ΔHm [2]: -2.75 ± 0.80 kcal/mol | VT-CD %-fold [2]: 36% (B) | χF (291 K) 228 nm Glob. ([2]; global fit, 228 nm, 291 K): 0% | χF (291 K) 228 nm Indiv. ([2]; individual fit, 228 nm, 291 K): 36% | Tm 228 nm Indiv. ([2]; individual fit): -5.1 oC | VT-CD Tm (°C) [2]: <0 °C | DHm (fitted value, results from OriginPro) ([2]; l 0.1 cm): -2.75455 kcal/mol | Tm (fitted value, results from OriginPro) ([2]; l 0.1 cm): 268.058 K

LE (ligand efficiency) [1]: 0.07 | VT-CD %-fold [2]: β-structure | fold by CD signature (in words) ([2]; no hairpin exciton, no fit possible): β-sheet structure
SMILES: CC[C@H](C)[C@H](NC(=O)[C@H](Cc1ccc(O)cc1)NC(=O)[C@H](Cc1c[nH]c2ccccc12)NC(=O)[C@H](Cc1ccc(O)cc1)NC(=O)[C@H](CC(N)=O)NC(=O)CNC(=O)[C@H](Cc1ccc(O)cc1)NC(=O)[C@H](C)NC(=O)[C@H](CCCNC(=N)N)NC(=O)[C@H](C)NC(=O)[C@@H](NC(=O)[C@H](Cc1c[nH]c2ccccc12)NC(=O)[C@@H](N)CCCNC(=N)N)C(C)C)C(=O)N[C@@H](CC(=O)O)C(=O)N[C@H](C(=O)N[C@@H](Cc1c[nH]c2ccccc12)C(=O)N[C@@H](Cc1c[nH]cn1)C(=O)N[C@@H](Cc1c[nH]c2ccccc12)C(=O)N[C@@H](CCC(=O)O)C(=O)O)C(C)C [2q] (H-RWVARAYGNYWYIDVWHWE-OH)

SMILES: CSCC[C@H](NC(=O)CNC(=O)[C@H](CCC(=O)O)NC(=O)[C@H](CCCNC(=N)N)NC(=O)[C@H](C)NC(=O)[C@@H](NC(=O)[C@H](Cc1c[nH]c2ccccc12)NC(=O)[C@@H](N)CCCNC(=N)N)C(C)C)C(=O)N[C@@H](CC(N)=O)C(=O)N[C@H](C(=O)N[C@@H](CC(=O)O)C(=O)NCC(=O)N[C@@H](Cc1ccc(O)cc1)C(=O)N[C@@H](Cc1ccccc1)C(=O)N[C@@H](CC(=O)O)C(=O)N[C@@H](Cc1ccc(O)cc1)C(=O)N[C@@H](Cc1c[nH]c2ccccc12)C(=O)N[C@@H](Cc1c[nH]cn1)C(=O)N[C@@H](Cc1c[nH]c2ccccc12)C(=O)N[C@@H](CCC(=O)O)C(=O)O)[C@@H](C)O [2o] (H-RWVAREGMNTDGYFDYWHWE-OH)
LE (ligand efficiency) [1]: 0.07 | ΔGF0 [2]: 0.47 ± 0.01 kcal/mol | Tm [2]: 2.8 oC | Hairpin %-fold 291K ([2]; 291 K): 36 ± 1% | Hairpin %-fold 310K [2]: 23 ± 1% | -TΔSF0 [2]: 6.45 ± 0.02 kcal/mol | ΔCpF0 [2]: -2 ± 1 cal.deg-1.mol-1 | ΔHF0 [2]: -5.97 ± 0.01 kcal/mol | ΔHm [2]: -5.93 ± 0.03 kcal/mol | VT-CD %-fold [2]: 50% (B) | %fold 291K ([2]; fraction folded at 291 K from the two-state fit of the CD melt, l 0.1 cm): 36% | Tm 228 nm Glob. ([2]; global fit (shared maximum molar ellipticity), 228 nm): 14.6 oC | Tm 202 nm Glob. ([2]; global fit, 202 nm): -18.3 oC | χF (291 K) 202 nm Glob. ([2]; global fit, 202 nm, 291 K): 19% | χF (291 K) 228 nm Glob. ([2]; global fit, 228 nm, 291 K): 47% | χF (291 K) 202 nm Indiv. ([2]; individual fit, 202 nm, 291 K): 38% | χF (291 K) 228 nm Indiv. ([2]; individual fit, 228 nm, 291 K): 36% | Tm 228 nm Indiv. ([2]; individual fit): 2.8 oC | Tm 202 nm Indiv. ([2]; individual fit, β-bulge band 202 nm): 7.9 oC | VT-CD Tm (°C) [2]: 3 °C | DHm (fitted value, results from OriginPro) ([2]; l 0.1 cm): -5.92662 kcal/mol | Tm (fitted value, results from OriginPro) ([2]; l 0.1 cm): 275.984 K
